Each structure is given as a SMILES string. Where only a bound is given, the exact number is not on record here.

This is an account of results in patent US12559529B2, “NPY2 receptor agonists” (Boehringer Ingelheim International GmbH, priority 2019, dated 2026).

The target in data set [1] is T1, Human Neuropeptide Y2 Receptor (Homo sapiens, UniProt P49146).
T1 construct: purchased CHEMICON HTS066M
T1 sequence (P49146 1-381): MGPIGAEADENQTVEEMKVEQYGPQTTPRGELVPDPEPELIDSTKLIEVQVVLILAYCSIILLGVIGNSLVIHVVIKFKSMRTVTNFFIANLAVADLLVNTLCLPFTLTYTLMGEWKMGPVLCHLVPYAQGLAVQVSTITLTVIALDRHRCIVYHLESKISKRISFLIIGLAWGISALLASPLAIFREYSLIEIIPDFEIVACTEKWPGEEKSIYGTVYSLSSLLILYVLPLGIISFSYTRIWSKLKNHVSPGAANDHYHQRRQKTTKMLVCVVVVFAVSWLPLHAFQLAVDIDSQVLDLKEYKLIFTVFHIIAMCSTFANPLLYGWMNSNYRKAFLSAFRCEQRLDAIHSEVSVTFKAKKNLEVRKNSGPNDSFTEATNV
As to the kind of experiment: Radioligand binding competition assay (RLB). The gist of the method: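 Membranes from cells expressing human Y2 receptor (0.5 μg protein/well) were incubated with radioligand and serially diluted peptides in 50 mM HEPES, 5 mM MgCl2, 1 mM CaCl2, 0.2% ovalbumin, pH 7.4, for 2 h at room temperature with shaking. Bound radioactivity was collected by filtration and counted; IC50 from sigmoidal nonlinear regression.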

The next data set in a line: Solubility determination. The format is physicochemical. Here is the method:
The peptide was dissolved by shaking the filter unit horizontally at 600 rpm for 2 hours at room temperature. […] Both the control and sample were analysed with reversed phase chromatography. The area under the peak of the sample was compared to the control and the solubility was calculated based on that ratio. The pH was measured and recorded for each sample.

A further data set deals with T2, human NPY2 receptor (Homo sapiens, UniProt P49146).
T2 sequence (P49146 1-381): T1 sequence (P49146 1-381)
As to the kind of experiment: HTRF cAMP Gi assay, hY2R. For orientation: Time-resolved FRET reads energy transfer from a long-lived donor to a nearby acceptor.

Another data set addresses T3, human NPY1 receptor (Homo sapiens, UniProt P25929).
T3 construct: expressed in transfected cells; host or cells: CHO-K1
T3 sequence (P25929 1-384): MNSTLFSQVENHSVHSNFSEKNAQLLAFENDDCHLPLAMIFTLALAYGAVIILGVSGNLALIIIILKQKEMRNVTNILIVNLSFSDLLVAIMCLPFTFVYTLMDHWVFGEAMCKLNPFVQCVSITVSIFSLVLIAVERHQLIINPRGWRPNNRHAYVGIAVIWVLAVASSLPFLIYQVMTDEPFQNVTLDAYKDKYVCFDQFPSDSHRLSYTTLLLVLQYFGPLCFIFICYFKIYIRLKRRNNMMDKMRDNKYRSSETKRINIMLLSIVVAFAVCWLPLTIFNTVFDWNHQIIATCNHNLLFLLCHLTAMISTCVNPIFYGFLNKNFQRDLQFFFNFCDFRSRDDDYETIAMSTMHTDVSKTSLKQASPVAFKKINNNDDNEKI
In words: HTRF cAMP Gi assay, hY1R. It counts as cell-based. The settings on record: Table 4; CHO-K1 cells.

Another data set has as its target T4, human NPY4 receptor (Homo sapiens, UniProt P50391).
T4 construct: expressed in transfected cells; host or cells: CHO-K1
As to the kind of experiment: HTRF cAMP Gi assay, hY4R. The settings on record: Table 4; CHO-K1 cells. The format is cell-based.

Data set [2] concerns the target T1, Human Neuropeptide Y2 Receptor. As to the kind of experiment: Activity (RLB) after incubation in solutions at different pH values. The note with it: apparent Ki of filtrate after 2 h in buffer. It counts as binding.
Another data set has as its target T5, human NPY5 receptor (Homo sapiens, UniProt Q15761).
T5 sequence (Q15761 1-445): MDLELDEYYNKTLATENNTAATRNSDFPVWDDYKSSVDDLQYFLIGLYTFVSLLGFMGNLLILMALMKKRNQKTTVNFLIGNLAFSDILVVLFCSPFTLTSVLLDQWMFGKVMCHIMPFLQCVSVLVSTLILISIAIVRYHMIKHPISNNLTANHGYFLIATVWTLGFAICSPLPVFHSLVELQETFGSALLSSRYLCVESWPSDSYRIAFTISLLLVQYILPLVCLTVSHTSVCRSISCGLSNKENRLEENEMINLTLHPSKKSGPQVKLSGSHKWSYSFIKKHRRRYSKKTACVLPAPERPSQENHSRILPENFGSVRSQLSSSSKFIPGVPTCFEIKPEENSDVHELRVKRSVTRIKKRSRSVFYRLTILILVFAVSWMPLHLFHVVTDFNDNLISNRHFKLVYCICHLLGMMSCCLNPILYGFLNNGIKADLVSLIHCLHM
In words: HTRF cAMP Gi assay, hY5R.

The mark [3] stands for this setting: Table 3, human 125I-PYY (1-36) 0.02 nM, Y2 receptor membranes, read-out: Ki.
Setting [4] is: Table 8, from DMSO stock, read-out: hY2R RLB Ki (nM) DMSO.
Setting [5] is: pH6.1-6.2, assumed 10 mg/ml, read-out: RLB 6 (pH6.1-6.2).
Setting [6] is: pH7.1-7.2, assumed 10 mg/ml, read-out: RLB 7 (pH7.1-7.2).
[7] abbreviates: pH8.1-8.2, assumed 10 mg/ml, read-out: RLB 8 (pH8.1-8.2).

T4 sequence (P50391 whole entry): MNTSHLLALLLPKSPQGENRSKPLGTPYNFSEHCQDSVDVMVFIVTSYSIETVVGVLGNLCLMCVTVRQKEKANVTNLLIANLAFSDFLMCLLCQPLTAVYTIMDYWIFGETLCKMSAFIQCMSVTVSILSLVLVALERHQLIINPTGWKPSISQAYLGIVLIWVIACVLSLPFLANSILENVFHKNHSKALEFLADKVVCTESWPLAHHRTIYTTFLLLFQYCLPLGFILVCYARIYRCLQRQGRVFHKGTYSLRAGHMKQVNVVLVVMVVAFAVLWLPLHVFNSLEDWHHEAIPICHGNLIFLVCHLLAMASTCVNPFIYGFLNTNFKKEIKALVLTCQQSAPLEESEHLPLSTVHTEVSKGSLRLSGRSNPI
Experimental for human NPY1 receptor: Briefly, the production of intracellular cAMP will generate a competition between unlabeled cAMP and exogenously added d2-cAMP for anti-cAMP antibodies conjugated to cryptate. CHO-K1 cells stably expressing the human NPY1, NPY2, NPY4 and NPY5 receptors were used with the cells brought to life from a frozen stock immediately before assay performance. 2000 cells per well were applied for all four NPY receptor subtype assays. A 384-well format was used applying a total volume of 20 μl using 5 μl cells, 2.5 μl peptide agonist, 2.5 μl forskolin and 5 μl of each of the fluorophores. […] Concentration-response evaluation of compounds was performed with 11 concentrations of agonist peptides (covering 3 decades). EC50 values were calculated by nonlinear regression using sigmoid concentration-response with variable slope.
Text for human NPY4 receptor: (§1) The Homogenous Time Resolved fluorescence (HTRF) technology optimized for Gi coupled receptors has thoroughly been described in Cisbio cAMP Gi kit manual. Briefly, the production of intracellular cAMP will generate a competition between unlabeled cAMP and exogenously added d2-cAMP for anti-cAMP antibodies conjugated to cryptate. CHO-K1 cells stably expressing the human NPY1, NPY2, NPY4 and NPY5 receptors were used with the cells brought to life from a frozen stock immediately before assay performance. 2000 cells per well were applied for all four NPY receptor subtype assays. A 384-well format was used applying a total volume of 20 μl using 5 μl cells, 2.5 μl peptide agonist, 2.5 μl forskolin and 5 μl of each of the fluorophores. […] Concentration-response evaluation of compounds was performed with 11 concentrations of agonist peptides (covering 3 decades). EC50 values were calculated by nonlinear regression using sigmoid concentration-response with variable slope.
Text for human NPY5 receptor: as §1

A word on the EC50: it is the concentration at which the effect is half-maximal. For `CC(C)CC(=O)N[C@@H](CCCNC(=N)N)C(=O)N1CCC[C@H]1C(=O)N[C@@H](CCC(=O)O)C(=O)N[C@@H](CCCCNC(=O)COCCOCCNC(=O)COCCOCCNC(=O)CC[C@H](NC(=O)CCCCCCCCCCCCCCCCC(=O)O)C(=O)O)C(=O)N1CCC[C@H]1C(=O)NCC(=O)N[C@@H](CCC(=O)O)C(=O)N[C@@H](CC(=O)O)C(=O)N[C@@H](C)C(=O)N[C@@H](CO)C(=O)N1CCC[C@H]1C(=O)N[C@@H](CCC(=O)O)C(=O)N[C@@H](CCC(=O)O)C(=O)N[C@@H](CC(C)C)C(=O)N[C@@H](CCC(N)=O)C(=O)N[C@@H](CCCNC(=N)N)C(=O)N[C@@H](Cc1ccc(O)cc1)C(=O)N[C@@H](Cc1ccc(O)cc1)C(=O)N[C@H](C(=O)N[C@@H](CO)C(=O)N[C@@H](CC(C)C)C(=O)N[C@@H](CCCNC(=N)N)C(=O)N[C@@H](C)C(=O)N[C@@H](Cc1ccc(O)cc1)C(=O)N[C@@H](Cc1ccc(O)cc1)C(=O)N[C@@H](CC(N)=O)C(=O)N[C@@H](Cc1c[nH]c2ccccc12)C(=O)N[C@@H](CC(C)C)C(=O)N[C@H](C(=O)N[C@@H](CCCNC(=N)N)C(=O)N[C@@H](CCC(N)=O)C(=O)N[C@@H](CCCNC(=N)N)C(=O)N[C@@H](Cc1ccc(O)cc1)C(N)=O)[C@@H](C)O)C(C)C` [Ref. 3, reference compound], in data set [1] (Table 2, read-out: hY2 RLB (nM) (Ex. 1)), the Ki was 1.69 nM. Moreover, the “[final pH] of Sol pH 6 sample” value in the data set “Solubility determination” (pH 6) is “[6.0]”. In addition, the “[final pH] of Sol pH 7 sample” value in “Solubility determination” (pH 7) is “[6.7]”. The response on human NPY2 receptor was half-maximal at 0.375 nM (EC50).
Turning to `CC(C)CC(=O)N[C@@H](C)C(=O)N1CCC[C@H]1C(=O)N[C@@H](C)C(=O)N[C@@H](CCCCNC(=O)COCCOCCNC(=O)COCCOCCNC(=O)CC[C@H](NC(=O)CCCCCCCCCCCCCCCCC(=O)O)C(=O)O)C(=O)N1CCC[C@H]1C(=O)N[C@@H](CCC(=O)O)C(=O)N[C@@H](CCC(=O)O)C(=O)N[C@@H](CC(=O)O)C(=O)N[C@@H](C)C(=O)N[C@H](C(=O)N1CCC[C@H]1C(=O)N[C@@H](CCC(=O)O)C(=O)N[C@@H](CCC(=O)O)C(=O)N[C@@H](CC(C)C)C(=O)N[C@@H](CCC(N)=O)C(=O)N[C@@H](CCCNC(=N)N)C(=O)N[C@@H](Cc1ccc(O)cc1)C(=O)N[C@@H](Cc1ccc(O)cc1)C(=O)N[C@H](C(=O)N[C@@H](CO)C(=O)N[C@@H](CC(C)C)C(=O)N[C@@H](CCCNC(=N)N)C(=O)N[C@@H](Cc1c[nH]cn1)C(=O)N[C@@H](Cc1ccc(O)cc1)C(=O)N[C@@H](Cc1ccc(O)cc1)C(=O)N[C@@H](CC(N)=O)C(=O)N[C@@H](Cc1c[nH]c2ccccc12)C(=O)N[C@@H](CC(C)C)C(=O)N[C@H](C(=O)N[C@@H](CCCNC(=N)N)C(=O)N[C@@H](CCC(N)=O)C(=O)N[C@@H](CCCNC(=N)N)C(=O)N[C@@H](Cc1ccc(O)cc1)C(N)=O)[C@@H](C)O)C(C)C)[C@@H](C)O` [Compound 106, N{alpha-4}-(3-methylbutanoyl)-N{epsilon-7}-[2-(2-{2-[2-(2-{2-[(4S)-4-carboxy-4-(17-carboxyheptadecanamido)butanamido]ethoxy}ethoxy)acetamido]ethoxy}ethoxy)acetamido]-[4A,6A,7K,9E,13T,18Q,22V,28Y,30W,31L]hPYY (4-36)], the Ki in data set [1] (setting [3]) came out at 0.66 nM; in data set [1] (setting [4]), 6 nM; in data set [2] (setting [5]) it was 7.7 nM; in data set [2] (setting [6]), 9.3 nM; in data set [2] (setting [7]), 7.5 nM. The EC50 on human NPY1 receptor was greater than 5000 nM; at human NPY4 receptor, greater than 5000 nM; on human NPY2 receptor, 0.173 nM; at human NPY5 receptor, greater than 5000 nM.
For the molecule `CC[C@H](C)[C@H](NC(=O)[C@H](CCC(=O)O)NC(=O)[C@H](CCC(=O)O)NC(=O)[C@@H]1CCCN1C(=O)[C@H](CO)NC(=O)[C@H](C)NC(=O)[C@H](CC(=O)O)NC(=O)[C@H](C)NC(=O)[C@H](CCC(=O)O)NC(=O)[C@@H]1CCCN1C(=O)[C@H](CCCCNC(=O)COCCOCCNC(=O)COCCOCCNC(=O)CC[C@H](NC(=O)CCCCCCCCCCCCCCCCC(=O)O)C(=O)O)NC(=O)[C@H](CCC(=O)O)NC(=O)[C@@H]1CCCN1C(=O)[C@H](C)NC(=O)CC(C)C)C(=O)N[C@@H](CCC(N)=O)C(=O)N[C@@H](CCCNC(=N)N)C(=O)N[C@@H](Cc1ccc(O)cc1)C(=O)N[C@@H](Cc1ccc(O)cc1)C(=O)N[C@H](C(=O)N[C@@H](CO)C(=O)N[C@@H](CC(C)C)C(=O)N[C@@H](CCCNC(=N)N)C(=O)N[C@@H](Cc1c[nH]cn1)C(=O)N[C@@H](Cc1ccc(O)cc1)C(=O)N[C@@H](Cc1ccc(O)cc1)C(=O)N[C@@H](CC(N)=O)C(=O)N[C@@H](Cc1c[nH]c2ccccc12)C(=O)N[C@@H](CC(C)C)C(=O)N[C@H](C(=O)N[C@@H](CCCNC(=N)N)C(=O)N[C@@H](CCC(N)=O)C(=O)N[C@@H](CCCNC(=N)N)C(=O)N[C@@H](Cc1ccc(O)cc1)C(N)=O)[C@@H](C)O)C(C)C` [Compound 53, N{alpha-4}-(3-methylbutanoyl)-N{epsilon-7}-[2-(2-{2-[2-(2-{2-[(4S)-4-carboxy-4-(17-carboxyheptadecanamido)butanamido]ethoxy}ethoxy)acetamido]ethoxy}ethoxy)acetamido]-[4A,7K,9E,10A,17I,18Q,22V,28Y,30W,31L]hPYY (4-36)], the Ki in data set [1] (setting [3]) is 0.24 nM; in data set [1] (setting [4]), 2 nM; in data set [2] (setting [5]) it was 3.4 nM; in data set [2] (setting [6]), 3.1 nM; in data set [2] (setting [7]) it was 2.5 nM. The EC50 at human NPY1 receptor is greater than 5000 nM; on human NPY4 receptor it was greater than 5000 nM; on human NPY2 receptor it was 0.119 nM; at human NPY5 receptor, greater than 5000 nM.
